# ChEMBL document CHEMBL4184155, “Resveratrol analogues like piceatannol are potent antioxidants as quantitatively demonstrated through the high scavenging ability against reactive oxygen species and methyl radical” (Bioorg Med Chem Lett, 2017)
# Assays:
# Assay type in all cases: functional
# [1] = Antioxidant activity assessed as relative scavenging rate constant for photolysis-induced alkoxyl scavenging activity by measuring Kaox/Kst ratio using DMPO spin trap by ESR spectroscopic method
# [2] = Antioxidant activity assessed as relative scavenging rate constant for photolysis-induced singlet oxygen scavenging activity by measuring Kaox/Kst ratio using 4-HO-TEMP spin trap by ESR spectroscopic method
# [3] = Antioxidant activity assessed as Trolox equivalents of photolysis-induced alkoxyl scavenging activity using DMPO spin trap by ESR spectroscopic method
# [4] = Antioxidant activity assessed as Trolox equivalents of photolysis-induced methyl radical scavenging activity using DMPO spin trap by ESR spectroscopic method
# [5] = Antioxidant activity assessed as Trolox equivalents of photolysis-induced peroxyl scavenging activity using CYPMPO spin trap by ESR spectroscopic method
# [6] = Antioxidant activity assessed as Trolox equivalents of photolysis-induced hydroxyl radical scavenging activity using DMPO spin trap by ESR spectroscopic method
# [7] = Antioxidant activity assessed as relative scavenging rate constant for photolysis-induced methyl radical scavenging activity by measuring Kaox/Kst ratio using DMPO spin trap by ESR spectroscopic method
# [8] = Antioxidant activity assessed as relative scavenging rate constant for photolysis-induced peroxyl scavenging activity by measuring Kaox/Kst ratio using CYPMPO spin trap by ESR spectroscopic method
# [9] = Antioxidant activity assessed as relative scavenging rate constant for photolysis-induced super-oxide anion scavenging activity by measuring Kaox/Kst ratio using CYPMPO spin trap by ESR spectroscopic method
# [10] = Antioxidant activity assessed as Trolox equivalents of photolysis-induced superoxide anion scavenging activity using CYPMPO spin trap by ESR spectroscopic method
# [11] = Antioxidant activity assessed as Trolox equivalents of photolysis-induced singlet oxygen scavenging activity using 4-HO-TEMP spin trap by ESR spectroscopic method
# [12] = Antioxidant activity assessed as relative scavenging rate constant for photolysis-induced hydroxyl radical scavenging activity by measuring Kaox/Kst ratio using DMPO spin trap by ESR spectroscopic method
# [13] = Antioxidant activity assessed as rate constant for singlet oxygen scavenging activity in methanol solution by EPR spectroscopic method
# [14] = Antioxidant activity assessed as rate constant for singlet oxygen scavenging activity in aqueous solution by EPR spectroscopic method
# [15] = Antioxidant activity assessed as rate constant for photolysis-induced methyl radical scavenging activity using DMPO spin trap by ESR spectroscopic method
# [16] = Antioxidant activity assessed as rate constant for singlet oxygen scavenging activity in ethanol-water (1:1 v/v) mixture using phosphorescence-based single-photon-counting method
Structure (SMILES),Ratio [1],Ratio [2],Activity [3],Activity [4],Activity [5],Activity [6],Ratio [7],Ratio [8],Ratio [9],Activity [10],Activity [11],Ratio [12],K [13],K [14],K [15],K [16]
Oc1cc(O)cc(/C=C/c2ccc(O)cc2O)c1,19,7960,0.17 equiv,0.08 equiv,0.67 equiv,0.68 equiv,3.98,18.9,37.4,0.45 equiv,3.4 equiv,21.8,–,–,–,–
Oc1ccc(/C=C/c2cc(O)cc(O)c2)cc1,23.3,7080,0.2 equiv,-0 equiv,0.69 equiv,0.5 equiv,-0,19.6,33.4,0.4 equiv,3 equiv,15.8,2.55 ×10⁷ /M/s,3.92 ×10⁹ /M/s,–,–
COc1ccc(/C=C/c2cc(O)cc(O)c2)cc1O,11.9,8780,0.1 equiv,0.04 equiv,0.71 equiv,0.71 equiv,2.21,21.1,70.5,0.84 equiv,3.7 equiv,22.6,–,–,3.1 ×10⁷ /M/s,–
Oc1cc(O)cc(/C=C/c2ccc(O)c(O)c2)c1,41.2,16600,0.36 equiv,0.11 equiv,7.7 equiv,2.78 equiv,5.65,218,156,1.86 equiv,7 equiv,88.8,–,–,7.9 ×10⁷ /M/s,–
COc1cc(/C=C/c2ccc(OC)c(OC)c2)cc(OC)c1,24.4,268,0.21 equiv,-0 equiv,0.3 equiv,0.8 equiv,-0,8.52,-0,-0 equiv,0.11 equiv,25.6,–,–,–,–
Cc1c(C)c2c(c(C)c1O)CCC(C)(C(=O)O)O2 (centres undefined),115,2360,–,–,–,–,50,28.3,83.9,–,–,31.9,–,–,7 ×10⁸ /M/s,6.22 ×10⁷ /M/s
COc1cc(/C=C/c2ccc(O)cc2)cc(OC)c1,13,4610,0.11 equiv,-0 equiv,0.88 equiv,0.47 equiv,-0,24.8,35.6,0.42 equiv,2 equiv,14.9,–,–,–,–
